Assay results: patent EP3783012A1, “AN ANTIMICROBIAL PEPTIDE” (priority 2019, dated 2021)
Where no end group is shown, it is not given here.

Legend:
human THP-1 macrophages = assay: Ex-vivo viability assay (MTT); assay type: cell-based
Protocol: Ex-vivo viability assay: Cellular viability was assessed in human THP-1 macrophages by a colorimetric assay that makes use of thiazolyl blue tetrazolium bromide (MTT, Sigma). Cells were grown in Roswell Park Memorial Institute (RPMI) medium supplemented with 10% of heat inactivated fetal bovine serum (FBS), 1% L-glutamine and 1% penicillin-streptomycin. At 90% confluence, cells were centrifuged and diluted to a 1:5 ratio with complete RPMI. The monocytes were differentiated into macrophages using […] phorbol 12-myristate 13-acetate (PMA) before being seeded in a 96 well plate at a density of 1.0 x 10^4 cells/well and incubated in the presence of 5% CO2 for 72 hours at 37°C. Following this, cells were treated with increasing concentrations (0.05, 0.5, 5, 50, 500 µg/mL) of Pep_V2QV5D, magainin 2 or colistin before re-incubation for a further 24 hours. Post-incubation, 10 µL of MTT was added to each well at a final concentration of 500 µg/mL and incubated at 5% CO2 for 2 hours at 37°C. Formazan crystals were dissolved by the addition of 100 µL 100% DMSO and gentle shaking for 5 minutes at room temperature. The absorbance was measured at 570nm in a microplate spectrophotometer (Synergy H1, Biotek). Maximum toxicity was determined by cells incubated with 100% DMSO. Cell viability was calculated as a per cent of a control treated with PBNS. Three technical replicates were performed each day on three independent days.

[1] = in humans; cited from earlier work
colRAB [2] = assay: Complete Elimination (CE) Drop Plate method; assay type: cell-based, A. baumannii; details: 90 minutes challenge in PBNS, tested alone
Protocol: (§1) Complete Elimination (CE) Drop Plate method: The CE method was primarily used as the antimicrobial susceptibility testing method for peptides used in this study. This was performed to avoid any interference of cations within the test media or buffer on the bioactivity of the peptides. This assay was performed by the method outlined by Chen et al. (2003) with minor modifications. Briefly, bacteria were grown overnight and sub-cultured to mid exponential phase. PBNS was used to make serial dilutions of bacteria in a 96 well plate. The appropriate volume of peptide was added to the wells at a final volume of 100 µL. As a control, PBNS was added to the bacterial suspensions without any peptide. The microtiter plate was incubated for 90 minutes at 37°C. Post challenge, 10 µL from each well was spotted onto appropriate media, depending on the strain. This was conducted in triplicate. The spots were left to dry, and the plates were incubated inverted. The first concentration to inhibit growth across all bacterial dilutions was determined as the CE concentration. Surviving colonies at sub-CE concentrations were counted after 18 hours incubation at 37°C. The reduction in colony forming units (CFU) was assessed relative to the untreated control and the log reduction induced by peptide treatment was calculated. All antimicrobial activity assays were performed in triplicate and on independent days.

colSAB = assay: Complete Elimination (CE) Drop Plate method; assay type: cell-based, A. baumannii; details: 90 minutes challenge in PBNS
Protocol: as §1

colRAB [3] = assay: Synergy study, Fractional inhibitory concentration (FIC) by CE drop plate method; assay type: cell-based, A. baumannii; details: Pep_V2QV5D combined with colistin
Protocol: Synergy studies were conducted using the above described CE drop plate method, however two peptides were mixed in a series of concentration combinations using PBNS as a diluent before bacterial inoculation and subsequent incubation. The highest concentration combination tested was the individual CE concentrations of Pep_V2QV5D and colistin, which were 12 µg/mL and 8 µg/mL, respectively. The amounts of each compound were then reduced sequentially in various proportions until the lowest possible active combination was identified.
Traditionally, the FIC in a drug mixture is defined as the sum of the FICs (ΣFIC) and is calculated with the equation; ΣFIC = FICA + FICB = (CEcombA/CEA) + (CEcombB/CEB) [formula]
Where CEA and CEB are the killing concentrations of individual peptides A and B, respectively, and CEcombA and CEcombB are the killing concentrations of the peptides in combination. In this work we used a similar concept and analysed the ratios of FICA and FICB. 'Synergy' was interpreted as a FIC ≤ 0.5, 'antagonism' as FIC > 4.0 and 'no interaction' as FIC > 0.5-4.0 [40].

A. baumannii = assay: In vitro resistance study (14 sequential passages at sub-inhibitory concentrations); assay type: cell-based; details: repeated exposure to sub-inhibitory concentrations
Protocol: In vitro resistance study: This assay was conducted as outlined by Ge et al. 1999 with some modifications. Briefly, the in vitro passage study involved exposing bacteria diluted to […] in PBNS to Pep_V2QV5D at one-half of the previously established bactericidal concentration. After 90 minutes of incubation at 37°C, 10 µL was spotted in triplicate on MHB and incubated again overnight. Post-incubation, surviving colonies were collected, diluted in PBNS and adjusted to […] before repeated treatment with the sub-killing concentration of Pep_V2QV5D. The CE concentration was determined prior to the initiation of the study, after the 4th, 7th, 11th and 14th passages. If the CE concentration after the fourth passage was greater than the original killing concentration, then for passes 5, 6, and 7, the amount of peptide used during the bacterial challenge was increased to one-half of that new CE concentration. This was continued over a 14-day course. Magainin and colistin were used as controls for the in vitro resistance study. This assay was performed in independent duplicates.

VRGLAPKKSLWPFGGPFKSPFN [Pep_V2QV5D]
toxic concentration compared to the concentration required for antimicrobial action (therapeutic index) (human THP-1 macrophages): over 40 times

GIGKFLHSAKKFGKAFVGEIMNS [magainin 2]
decrease in viability (human THP-1 macrophages; 50 µg/mL, 24 hours, MTT): 22%

vasopressin
half-life [1]: 10 to 35 min

colistin
toxic concentration compared to the concentration required for antimicrobial action (therapeutic index) (human THP-1 macrophages): 6.8 times | Complete Elimination values (CE concentration) (colRAB [2]): 8 µg/mL | Complete Elimination values (CE concentration) (colRAB [2]; listed as Colistin): 8 ^(R) µg/mL | Complete Elimination values (CE concentration) (colSAB): 0.25 µg/mL | CE concentration in combination (colRAB [3]): 1 µg/mL | fold change in the CE concentration over 14 days (A. baumannii): 16 fold
